Assay results from patent US10975056B2 (GlaxoSmithKline Intellectual Property Development Limited, priority 2016, dated 2021).
Values joined by “and” are separate entries in the source; they are usually repeats but may differ in a detail not shown here. Equal values may be shown once. Where a name gives a salt, the structure may show the parent alone. Read-outs that look alike come from different tables or passages of the source.

Experiments:
DNMT1 = DNMT1 (Homo sapiens, UniProt P26358); assay: DNMT1 biochemical activity, breaklight assay and/or SPA assay
[1] = tested on: erythroid progenitor cells (EPCs); assay: Fetal hemoglobin (HbF) ELISA in day 7 erythroid progenitor cells; format: cell-based, human; conditions: HbF ELISA, day 7 EPCs, 5 days; for EC50: Homo sapiens, Erythroid progenitor cell, read-out: EPC ELISA (pEC50 category) (converted);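 on all read-outs here: for fetal hemoglobin induction normalized to vehicle-treated cells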
Summary of the method: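 HbF induction was read by anti-HbF sandwich ELISA (HRP/TMB, OD450) on lysates and normalized to vehicle-treated cells. Cells were day 7 erythroid progenitors derived from human bone marrow CD34+ cells, seeded at 1,000/well with 3 U/mL rhEPO. Compound was given for 5 days at 37 °C at final concentrations […].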

[2] = binned activity in either the breaklight or the SPA assay, read-out: DNMT1 BioChemical (pIC50 category) (converted)
[3] = binned activity in either the breaklight or the SPA assay
[4] = breaklight assay and/or SPA assay, repeated experimental runs, read-out: average pIC50 against DNMT1 (converted)

Chain of DNMT1 (P26358 whole entry, looked up): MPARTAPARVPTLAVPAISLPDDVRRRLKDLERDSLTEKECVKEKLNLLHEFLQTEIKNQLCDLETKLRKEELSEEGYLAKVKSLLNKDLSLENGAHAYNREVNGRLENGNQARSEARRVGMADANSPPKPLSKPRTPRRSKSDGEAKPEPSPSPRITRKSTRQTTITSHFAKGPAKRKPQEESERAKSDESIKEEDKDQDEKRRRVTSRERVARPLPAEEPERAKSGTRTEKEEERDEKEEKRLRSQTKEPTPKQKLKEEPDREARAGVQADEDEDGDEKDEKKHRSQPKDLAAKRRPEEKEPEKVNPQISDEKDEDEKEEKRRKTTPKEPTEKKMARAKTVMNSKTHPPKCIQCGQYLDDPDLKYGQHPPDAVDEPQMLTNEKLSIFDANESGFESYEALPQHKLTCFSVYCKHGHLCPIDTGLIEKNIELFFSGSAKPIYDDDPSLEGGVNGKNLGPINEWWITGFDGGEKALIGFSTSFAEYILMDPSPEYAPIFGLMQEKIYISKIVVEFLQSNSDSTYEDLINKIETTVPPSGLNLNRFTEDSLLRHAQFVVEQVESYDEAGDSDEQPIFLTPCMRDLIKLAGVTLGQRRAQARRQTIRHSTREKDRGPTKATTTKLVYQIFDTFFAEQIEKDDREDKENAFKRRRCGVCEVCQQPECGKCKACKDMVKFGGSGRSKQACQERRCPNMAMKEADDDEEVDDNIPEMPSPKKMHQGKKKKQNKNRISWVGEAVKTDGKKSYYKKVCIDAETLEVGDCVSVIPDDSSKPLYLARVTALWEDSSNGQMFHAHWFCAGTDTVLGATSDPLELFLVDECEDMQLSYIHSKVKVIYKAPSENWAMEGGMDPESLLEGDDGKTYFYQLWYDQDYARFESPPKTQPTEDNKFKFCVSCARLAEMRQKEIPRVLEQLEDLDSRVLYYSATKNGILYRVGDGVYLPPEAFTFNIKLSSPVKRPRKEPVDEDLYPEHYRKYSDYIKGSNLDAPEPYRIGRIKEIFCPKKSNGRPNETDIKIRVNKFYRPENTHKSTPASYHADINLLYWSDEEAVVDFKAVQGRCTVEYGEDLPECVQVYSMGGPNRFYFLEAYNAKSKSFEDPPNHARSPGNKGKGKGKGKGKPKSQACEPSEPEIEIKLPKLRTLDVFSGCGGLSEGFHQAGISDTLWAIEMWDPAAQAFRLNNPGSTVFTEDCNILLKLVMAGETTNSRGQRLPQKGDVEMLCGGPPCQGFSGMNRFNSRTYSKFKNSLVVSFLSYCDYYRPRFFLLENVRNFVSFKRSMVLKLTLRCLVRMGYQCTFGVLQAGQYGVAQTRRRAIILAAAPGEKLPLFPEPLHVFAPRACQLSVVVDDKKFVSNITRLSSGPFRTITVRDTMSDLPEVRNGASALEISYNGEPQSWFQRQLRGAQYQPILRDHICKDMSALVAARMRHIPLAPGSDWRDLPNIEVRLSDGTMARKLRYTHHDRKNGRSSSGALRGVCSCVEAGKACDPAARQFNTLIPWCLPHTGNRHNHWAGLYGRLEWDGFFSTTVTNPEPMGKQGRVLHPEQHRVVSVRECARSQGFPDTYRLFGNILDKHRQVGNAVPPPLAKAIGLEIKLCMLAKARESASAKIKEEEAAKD

IC50 (DNMT1; [2])	EC50 [1]	DNMT1 BioChemical (pIC50 category) (DNMT1; [3])	IC50 (DNMT1; [4])	Compound	EPC ELISA (pEC50 category) [1]
316 to 1000 nM	> 31600 nM			CCc1c(C#N)c(SCc2ccc(-c3ccncc3)cc2)nc(N2CCC(N3CCCC3)CC2)c1C#N [Example 338, 4-Ethyl-2-((4-(pyridin-4-yl)benzyl)thio)-6-(4-(pyrrolidin-1-yl)piperidin-1-yl)pyridine-3,5-dicarbonitrile]	
	1000 to 31600 nM	D (Category D: ≥6.5)		CCc1c(C#N)c(SC(C(N)=O)c2ccccc2F)nc(N2CC[C@H](O)C2)c1C#N (stereo partly drawn) [Example 682, 2-((3,5-dicyano-4-ethyl-6-((S)-3-hydroxypyrrolidin-1-yl)pyridin-2-yl)thio)-2-(2-fluorophenyl)acetamide]	
316 to 1000 nM	316 to 1000 nM		316 to 1000 nM and 794 nM	CCc1c(C#N)c(SCc2ccc(S(C)(=O)=O)cc2)nc(N2CCCN(C)CC2)c1C#N [Example 379, 4-Ethyl-2-(4-methyl-1,4-diazepan-1-yl)-6-((4-(methylsulfonyl)benzyl)thio)pyridine-3,5-dicarbonitrile]	
316 to 1000 nM	1000 to 31600 nM			CCc1c(C#N)c(SC(C(N)=O)c2ccccc2)nc(N2CCN(N)CC2)c1C#N (centres unmarked) [Example 234, 2-((6-(4-Aminopiperazin-1-yl)-3,5-dicyano-4-ethylpyridin-2-yl)thio)-2-phenylacetamide, Trifluoroacetic Acid Salt]	
316 to 1000 nM	< 316 nM		316 to 1000 nM	CCc1c(C#N)c(SC(C(N)=O)c2ccccc2)nc(N2CCCN3CCCC3C2)c1C#N (centres unmarked) [Example 117, 2-((3,5-Dicyano-4-ethyl-6-(hexahydro-1H-pyrrolo[1,2-a][1,4]diazepin-2(3H)-yl)pyridin-2-yl)thio)-2-phenylacetamide]	
	< 316 nM	D (Category D: ≥6.5)		CCc1c(C#N)c(SC(C(N)=O)c2ccccc2)nc(N(C)CCN2[C@H](C)CC[C@@H]2C)c1C#N (stereo partly drawn) [Example 476, 2-(3,5-dicyano-6-((2-((2S,5R)-2,5-dimethylpyrrolidin-1-yl)ethyl)(methyl)amino)-4-ethylpyridin-2-ylthio)-2-phenylacetamide]	
	> 31600 nM	D (Category D: ≥6.5)		CCc1c(C#N)c(SCc2ccc(N3CCCCS3(=O)=O)cc2)nc(N2CCC(N)CC2)c1C#N [Example 601, 2-(4-aminopiperidin-1-yl)-6-((4-(1,1-dioxido-1,2-thiazinan-2-yl)benzyl)thio)-4-ethylpyridine-3,5-dicarbonitrile]	
316 to 1000 nM	1000 to 31600 nM			CCc1c(C#N)c(SC(C(N)=O)c2ccccc2)nc(N2CCc3[nH]nnc3C2)c1C#N (centres unmarked) [Example 359, 2-((3,5-Dicyano-6-(6,7-dihydro-1H-[1,2,3]triazolo[4,5-c]pyridin-5(4H)-yl)-4-ethylpyridin-2-yl)thio)-2-phenylacetamide]	
	< 316 nM	D (Category D: ≥6.5)		CCc1c(C#N)c(SC(C(N)=O)c2ccccc2)nc(N2CCOC(CN3CCCC3)C2)c1C#N (centres unmarked) [Example 560, 2-((3,5-dicyano-4-ethyl-6-(2-(pyrrolidin-1-ylmethyl)morpholino)pyridin-2-yl)thio)-2-phenylacetamide]	
	< 316 nM	D (Category D: ≥6.5)		CCc1c(C#N)c(SC(C(N)=O)c2ccccc2)nc(N(C)CC(=O)N2CCC(O)CC2)c1C#N (centres unmarked) [Example 621, 2-((3,5-dicyano-4-ethyl-6-((2-(4-hydroxypiperidin-1-yl)-2-oxoethyl)(methyl)amino)pyridin-2-yl)thio)-2-phenylacetamide]	
	< 316 nM	D (Category D: ≥6.5)		CCc1c(C#N)c(SC(C(N)=O)c2ccccc2)nc(N(C)CC(=O)N2CC(O)C2)c1C#N (centres unmarked) [Example 633, 2-((3,5-dicyano-4-ethyl-6-((2-(3-hydroxyazetidin-1-yl)-2-oxoethyl)(methyl)amino)pyridin-2-yl)thio)-2-phenylacetamide]	
	< 316 nM	D (Category D: ≥6.5)		CCc1c(C#N)c(SC(C(N)=O)c2ccccc2)nc(N2CCC(N3CC(OC)C3)CC2)c1C#N (centres unmarked) [Example 697, 2-((3,5-dicyano-4-ethyl-6-(4-(3-methoxyazetidin-1-yl)piperidin-1-yl)pyridin-2-yl)thio)-2-phenylacetamide]	
	< 316 nM	D (Category D: ≥6.5)		CCc1c(C#N)c(SC(C(N)=O)c2ccccc2)nc(N2CCO[C@H](CNCC(C)(C)C)C2)c1C#N (some centres unmarked) [Example 555]	
1000 to 31600 nM	1000 to 31600 nM			CCc1c(C#N)c(SC(C(N)=O)c2ccccc2)nc(N2CCC(OCCOP(=O)(O)O)CC2)c1C#N (centres unmarked) [Example 154, 2-((1-(6-((2-Amino-2-oxo-1-phenylethyl)thio)-3,5-dicyano-4-ethylpyridin-2-yl)piperidin-4-epoxy)ethyldihydrogen phosphate]	
< 316 nM	< 316 nM			CCc1c(C#N)c(S[C@@H](C(N)=O)c2ccccc2)nc(N(C)CC(N)=O)c1C#N (single isomer, unassigned) [Example 413, 2-((6-((2-amino-2-oxoethyl)(methyl)amino)-3,5-dicyano-4-ethylpyridin-2-yl)thio)-2-phenylacetamide]	

Second part, the compound before the results:

Compound	IC50 (DNMT1; [2])	EC50 [1]	DNMT1 BioChemical (pIC50 category) (DNMT1; [3])	IC50 (DNMT1; [4])	EPC ELISA (pEC50 category) [1]
CCc1c(C#N)c(SC(C(N)=O)c2ccccc2)nc(N2CC[C@@H](N)[C@H](F)C2)c1C#N (relative stereo) [Example 508, rel-2-((6-(trans)-4-amino-3-fluoropiperidin-1-yl)-3,5-dicyano-4-ethylpyridin-2-yl)thio)-2-phenylacetamide]	< 316 nM	< 316 nM			
CCc1c(C#N)c(SC(CC)c2ccc(CNC(C)=O)cc2)nc(N2CCC(N(C)C)CC2)c1C#N (centres unmarked) [Example 332, N-(4-(1-(3,5-Dicyano-6-(4-(dimethylamino)piperidin-1-yl)-4-ethylpyridin-2-ylthio)propyl)benzyl)acetamide, Trifluoroacetic Acid Salt]	1000 to 31600 nM	316 to 1000 nM			
CCc1c(C#N)c(SC(C(N)=O)c2ccccc2)nc(N(C)CC(=O)N2C[C@@H](O)[C@H](O)C2)c1C#N (stereo partly drawn) [Example 653, 2-((3,5-dicyano-6-((2-((3R,4R)-3,4-dihydroxypyrrolidin-1-yl)-2-oxoethyl)(methyl)amino)-4-ethylpyridin-2-yl)thio)-2-phenylacetamide]		1000 to 31600 nM	D (Category D: ≥6.5)		
CCc1c(C#N)c(S[C@@H](C(N)=O)c2ccccc2)nc(N2CC[C@H](NC(=O)OC(C)(C)C)[C@H](O)C2)c1C#N [Example 537, tert-butyl ((3R,4S)-1-(6-(((R)-2-amino-2-oxo-1-phenylethyl)thio)-3,5-dicyano-4-ethylpyridin-2-yl)-3-hydroxypiperidin-4-yl)carbamate]		316 to 1000 nM	D (Category D: ≥6.5)		
CCc1c(C#N)c(S[C@@H](C(N)=O)c2ccccc2)nc(N2CCC(O)(CN)C2)c1C#N.Cl (stereo in doubt) [Example 423, (R)-2-((6-((R)-3-(aminomethyl)-3-hydroxypyrrolidin-1-yl)-3,5-dicyano-4-ethylpyridin-2-yl)thio)-2-phenylacetamide hydrochloride]			D (Category D: ≥6.5)		C (Category C: 6.0 ≤ x < 6.5)
CCc1c(C#N)c(SC(C(N)=O)c2ccccc2)nc(N2CCO[C@H](CN)C2)c1C#N (stereo partly drawn) [Example 564, 2-((6-((R)-2-(aminomethyl)morpholino)-3,5-dicyano-4-ethylpyridin-2-yl)thio)-2-phenylacetamide]		< 316 nM	D (Category D: ≥6.5)		
CCc1c(C#N)c(SC(C(N)=O)c2ccccc2)nc(N2CCC(F)(CN)CC2)c1C#N (centres unmarked) [Example 618, 2-((6-(4-(aminomethyl)-4-fluoropiperidin-1-yl)-3,5-dicyano-4-ethylpyridin-2-yl)thio)-2-phenylacetamide hydrochloride]		< 316 nM	D (Category D: ≥6.5)		
CCc1c(C#N)c(SCCN2CCOCC2)nc(SC(C(N)=O)c2ccccc2)c1C#N (centres unmarked) [Example 201, 2-((3,5-Dicyano-4-ethyl-6-((2-morpholinoethyl)thio)pyridin-2-yl)thio)-2-phenylacetamide]	316 to 1000 nM	316 to 1000 nM			
CCc1c(C#N)c(SC(C(N)=O)c2ncccc2OC)nc(N2CCCN(C)CC2)c1C#N (centres unmarked) [Example 209, 2-((3,5-Dicyano-4-ethyl-6-(4-methyl-1,4-diazepan-1-yl)pyridin-2-yl)thio)-2-(3-methoxypyridin-2-yl)acetamide]	316 to 1000 nM	316 to 1000 nM			
CCc1c(C#N)c(SC(C(N)=O)c2ccccc2)nc(N2CCCC(CN(C)C)C2)c1C#N (centres unmarked) [Example 565, 2-((3,5-dicyano-6-(3-((dimethylamino)methyl)piperidin-1-yl)-4-ethylpyridin-2-yl)thio)-2-phenylacetamide]	< 316 nM	< 316 nM			
CN(CC(N)=O)c1nc(SC(C(N)=O)c2ccccc2)c(C#N)c(C2CC2)c1C#N (centres unmarked) [Example 396, 2-((6-((2-Amino-2-oxoethyl)(methyl)amino)-3,5-dicyano-4-cyclopropylpyridin-2-yl)thio)-2-phenylacetamide]	316 to 1000 nM	1000 to 31600 nM			
CCc1c(C#N)c(SC(C(N)=O)c2ccccc2)nc(N2CCC(N)(CO)CC2)c1C#N (centres unmarked) [Example 242, 2-((6-(4-Amino-4-(hydroxymethyl)piperidin-1-yl)-3,5-dicyano-4-ethylpyridin-2-yl)thio)-2-phenylacetamide, Trifluoroacetic Acid Salt]		< 316 nM	D (Category D: ≥6.5)		
CCc1c(C#N)c(SCc2ccc(CNC(C)=O)cc2)nc(N(C)CCO)c1C#N [Example 103, N-(4-(((3,5-Dicyano-4-ethyl-6-((2-hydroxyethyl)(methyl)amino)pyridin-2-yl)thio)methyl)benzyl)acetamide]	1000 to 31600 nM	1000 to 31600 nM		≥ 1000 nM	
